Results published in ChEMBL document CHEMBL1201862, “PubChem BioAssay data set” (2004).
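Method: 48-hour compound exposure of cells in 96-well plates, five concentrations, linear interpolation of endpoints. Here, GI50 denotes the concentration required for 50% inhibition of growth.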 Activity calls are given as the source filed them. Rule as the data show it: active = GI50 up to about 1.1 µM and inactive = higher.

Tests used:
Experiment in all cases: NCI anticancer screen, dose series, 48 h
NCI-H23 = test system: NCI-H23
COLO 205 = test system: COLO 205
UACC-257 = test system: UACC-257
A498 = test system: A498
OVCAR-3 = test system: OVCAR-3
UO-31 = test system: UO-31
CCRF-CEM = test system: CCRF-CEM
HOP-92 = test system: HOP-92
BT-549 = test system: BT-549
SK-MEL-5 = test system: SK-MEL-5
A549 = test system: A549
EKVX = test system: EKVX
CAKI-1 = test system: CAKI-1
HOP-62 = test system: HOP-62
NCI-H522 = test system: NCI-H522
T47D = test system: T47D
SF-295 = test system: SF-295
SNB-75 = test system: SNB-75
786-0 = test system: 786-0
RPMI-8226 = test system: RPMI-8226
PC-3 = test system: PC-3
Hs-578T = test system: Hs-578T
MCF7 = test system: MCF7
ACHN = test system: ACHN
K562 = test system: K562
M14 = test system: M14
HCT-15 = test system: HCT-15
SN12C = test system: SN12C
U-251 = test system: U-251
MOLT-4 = test system: MOLT-4
MDA-MB-231 = test system: MDA-MB-231
MDA-MB-435 = test system: MDA-MB-435
SNB-19 = test system: SNB-19
IGROV-1 = test system: IGROV-1
Malme-3M = test system: Malme-3M
LOX IMVI = test system: LOX IMVI
SW-620 = test system: SW-620
SF-268 = test system: SF-268
TK-10 = test system: TK-10
DU-145 = test system: DU-145
NCI-H460 = test system: NCI-H460
SR = test system: SR
KM12 = test system: KM12
HL-60 = test system: HL-60
HT-29 = test system: HT-29
SK-MEL-28 = test system: SK-MEL-28
OVCAR-4 = test system: OVCAR-4
NCI-H226 = test system: NCI-H226
SK-OV-3 = test system: SK-OV-3
RXF 393 = test system: RXF 393
MDA-N = test system: MDA-N
UACC-62 = test system: UACC-62
HCC 2998 = test system: HCC 2998
OVCAR-8 = test system: OVCAR-8
HCT-116 = test system: HCT-116
SF-539 = test system: SF-539
NCI/ADR-RES = test system: NCI/ADR-RES
OVCAR-5 = test system: OVCAR-5
SK-MEL-2 = test system: SK-MEL-2

Oc1cc(Cl)cc2cc(Cl)cnc12
GI50 (NCI-H23): 2.75 µM (inactive) | GI50 (COLO 205): 31 µM (inactive) | GI50 (UACC-257): 3.73 µM (inactive) | GI50 (A498): 12.5 µM (inactive) | GI50 (OVCAR-3): 0.582 µM (active) | GI50 (UO-31): 3.21 µM (inactive) | GI50 (CCRF-CEM): 1.78 µM (inactive) | GI50 (HOP-92): 21.5 µM (inactive) | GI50 (BT-549): 4.73 µM (inactive) | GI50 (SK-MEL-5): 3.67 µM (inactive) | GI50 (A549): 3.22 µM (inactive) | GI50 (EKVX): 2.85 µM (inactive) | GI50 (CAKI-1): 12.9 µM (inactive) | GI50 (HOP-62): 7.41 µM (inactive) | GI50 (NCI-H522): 3.16 µM (inactive) | GI50 (T47D): 3.34 µM (inactive) | GI50 (SF-295): 1.92 µM (inactive) | GI50 (SNB-75): 5.35 µM (inactive) | GI50 (786-0): 23 µM (inactive) | GI50 (RPMI-8226): 2.59 µM (inactive) | GI50 (PC-3): 2.94 µM (inactive) | GI50 (Hs-578T): 22.1 µM (inactive) | GI50 (MCF7): 3.4 µM (inactive) | GI50 (ACHN): 2.44 µM (inactive) | GI50 (K562): 0.989 µM (active) | GI50 (M14): 3.3 µM (inactive) | GI50 (HCT-15): 0.598 µM | GI50 (SN12C): 2.3 µM (inactive) | GI50 (U-251): 2.42 µM (inactive) | GI50 (MOLT-4): 2.89 µM (inactive) | GI50 (MDA-MB-231): 3.56 µM (inactive) | GI50 (MDA-MB-435): 2.87 µM (inactive) | GI50 (SNB-19): 4 µM (inactive) | GI50 (IGROV-1): 0.596 µM (active) | GI50 (Malme-3M): 2.25 µM (inactive) | GI50 (LOX IMVI): 0.597 µM (active) | GI50 (SW-620): 3.15 µM (inactive) | GI50 (SF-268): 1.14 µM (inactive) | GI50 (TK-10): 27.5 µM (inactive) | GI50 (DU-145): 6.47 µM (inactive) | GI50 (NCI-H460): 1.79 µM (inactive) | GI50 (SR): 1.56 µM (inactive) | GI50 (KM12): 5.13 µM (inactive) | GI50 (HL-60): 0.288 µM (active) | GI50 (HT-29): 22.8 µM (inactive) | GI50 (SK-MEL-28): 5.12 µM (inactive) | GI50 (OVCAR-4): 1.55 µM (inactive) | GI50 (NCI-H226): 19.5 µM (inactive) | GI50 (SK-OV-3): 30.8 µM (inactive) | GI50 (RXF 393): 5.07 µM (inactive) | GI50 (MDA-N): 6.34 µM (inactive) | GI50 (UACC-62): 2.49 µM (inactive) | GI50 (HCC 2998): 25.1 µM (inactive) | GI50 (OVCAR-8): 2.28 µM (inactive) | GI50 (HCT-116): 2.67 µM (inactive) | GI50 (SF-539): 3.24 µM (inactive) | GI50 (NCI/ADR-RES): 1.49 µM (inactive) | GI50 (OVCAR-5): 17.5 µM (inactive)

CCOc1cc(NC(C)=O)ccc1C(=O)NN1C(=O)C(Oc2ccccc2)C1c1ccccc1 (configuration not stated)
GI50 (NCI-H23): > 100 µM (inactive) | GI50 (COLO 205): 71.9 µM (inactive) | GI50 (UACC-257): > 100 µM (inactive) | GI50 (A498): 45.4 µM (inactive) | GI50 (OVCAR-3): > 100 µM (inactive) | GI50 (CCRF-CEM): 28.6 µM (inactive) | GI50 (HOP-92): > 100 µM (inactive) | GI50 (BT-549): > 100 µM (inactive) | GI50 (SK-MEL-5): 42.8 µM (inactive) | GI50 (EKVX): > 100 µM (inactive) | GI50 (CAKI-1): 52.4 µM (inactive) | GI50 (HOP-62): > 100 µM (inactive) | GI50 (NCI-H522): > 100 µM (inactive) | GI50 (T47D): 44.4 µM (inactive) | GI50 (SF-295): 57.8 µM (inactive) | GI50 (SNB-75): 92.3 µM (inactive) | GI50 (786-0): > 100 µM (inactive) | GI50 (RPMI-8226): 35.9 µM (inactive) | GI50 (PC-3): > 100 µM (inactive) | GI50 (Hs-578T): > 100 µM (inactive) | GI50 (MCF7): 15.1 µM (inactive) | GI50 (ACHN): 26.5 µM (inactive) | GI50 (K562): 49.5 µM (inactive) | GI50 (HCT-15): > 100 µM | GI50 (SN12C): > 100 µM (inactive) | GI50 (MOLT-4): 1.77 µM (inactive) | GI50 (MDA-MB-231): > 100 µM (inactive) | GI50 (MDA-MB-435): > 100 µM (inactive) | GI50 (IGROV-1): > 100 µM (inactive) | GI50 (Malme-3M): 52.5 µM (inactive) | GI50 (LOX IMVI): 85.3 µM (inactive) | GI50 (SW-620): > 100 µM (inactive) | GI50 (SF-268): > 100 µM (inactive) | GI50 (TK-10): > 100 µM (inactive) | GI50 (DU-145): > 100 µM (inactive) | GI50 (NCI-H460): 15.3 µM (inactive) | GI50 (SR): 4.15 µM (inactive) | GI50 (SK-MEL-2): > 100 µM (inactive) | GI50 (KM12): > 100 µM (inactive) | GI50 (HL-60): 25.9 µM (inactive) | GI50 (HT-29): > 100 µM (inactive) | GI50 (SK-MEL-28): > 100 µM (inactive) | GI50 (OVCAR-4): > 100 µM (inactive) | GI50 (NCI-H226): 57.8 µM (inactive) | GI50 (SK-OV-3): > 100 µM (inactive) | GI50 (RXF 393): 70.5 µM (inactive) | GI50 (MDA-N): > 100 µM (inactive) | GI50 (UACC-62): 45 µM (inactive) | GI50 (HCC 2998): > 100 µM (inactive) | GI50 (OVCAR-8): > 100 µM (inactive) | GI50 (HCT-116): 94.4 µM (inactive) | GI50 (SF-539): 78 µM (inactive) | GI50 (NCI/ADR-RES): > 100 µM (inactive) | GI50 (OVCAR-5): > 100 µM (inactive)
